Measured values reported in US7700590B2, “Antibacterial agents” (University of New Orleans Research and Technology …, priority 2006, dated 2010).
≈ marks a conversion by molar mass, not a printed value.

Key:
Type in all cases: cell-based
[1] = tested on: Enterococcus faecalis 29212; test: Antibacterial growth inhibition assay (serial dilution, colorimeter at 600 nm), E. faecalis 29212; set-up: key to MIC, concentration at 50% inhibition of bacteria growth, E. faecalis 29212: N stands for no inhibition; settings: for MIC, concentration at 50% inhibition of bacteria growth, E. faecalis 29212 / MIC: 50% growth inhibition, vancomycin susceptible strain, serial dilution 238-0.46 μg/ml; for MIC: Enterococcus faecalis, 29212, read-out: MIC, concentration at 50% inhibition of bacteria growth, E. faecalis 29212
Method: (§1) The antibacterial activities of the compounds synthesized as described above were evaluated by assay against several strains of Gram positive bacteria from the American Type Culture Collection (ATCC), Staphylococcus aureus 29213, Staphylococcus aureus 43300, Enterococcus faecalis 29212, and Bacillus subtilis PY79. The minimum inhibition concentration (MIC, μg/mL) of each compound synthesized was tested against four bacterial strains. The inhibition of bacterial growth was monitored using a standard colorimeter at 600 nm using a serial dilution at concentrations 238, 119, 59.5, 29.8, 14.9, 7.44, 3.72, 1.86, 0.93, 0.46 μg/ml. Chloramphenicol was tested as a control, and inhibits bacteria growth (MIC90) at 7.44, 7.44, 4.0, 2.0 μg/mL, respectively, for the four bacterial strains listed in Table 1. In Table 1, the MICs are reported as the concentrations at 50% inhibition of bacteria growth, and N stands for no inhibition.

Bacillus subtilis PY79 = test: Antibacterial growth inhibition assay (serial dilution, colorimeter at 600 nm), B. subtilis PY79; set-up: key to MIC, concentration at 50% inhibition of bacteria growth, B. subtilis PY79: N stands for no inhibition; settings: for MIC / MIC90: Bacillus subtilis, PY79; for MIC / MIC, concentration at 50% inhibition of bacteria growth, B. subtilis PY79: 50% growth inhibition, serial dilution 238-0.46 μg/ml; for MIC: read-out: MIC, concentration at 50% inhibition of bacteria growth, B. subtilis PY79; for MIC90: concentration of inhibition at 90%, Table 2, read-out: MIC90 B. subtilis PY79
Method: as §1

[2] = tested on: Staphylococcus aureus 29213; test: Antibacterial growth inhibition assay (serial dilution, colorimeter at 600 nm), S. aureus 29213; set-up: key to MIC, concentration at 50% inhibition of bacteria growth, S. aureus 29213: N stands for no inhibition; settings: for MIC / MIC90: Staphylococcus aureus, 29213; for MIC / MIC, concentration at 50% inhibition of bacteria growth, S. aureus 29213: 50% growth inhibition, methicillin susceptible strain, serial dilution 238-0.46 μg/ml; for MIC: read-out: MIC, concentration at 50% inhibition of bacteria growth, S. aureus 29213; for MIC90: concentration of inhibition at 90%, Table 2, read-out: MIC90 S. aureus 29213
Method: as §1

[3] = tested on: Gram positive bacteria, including S. aureus, E. faecalis and B. subtilis; test: Antibacterial activity, statements not tied to one strain; settings: for antibacterial activity in words: strain not singled out
Method: as §1

[4] = tested on: Staphylococcus aureus 43300; test: Antibacterial growth inhibition assay (serial dilution, colorimeter at 600 nm), S. aureus 43300; set-up: key to MIC, concentration at 50% inhibition of bacteria growth, S. aureus 43300: N stands for no inhibition; settings: for MIC: Staphylococcus aureus, 43300, read-out: MIC, concentration at 50% inhibition of bacteria growth, S. aureus 43300; for MIC / MIC, concentration at 50% inhibition of bacteria growth, S. aureus 43300: 50% growth inhibition, methicillin resistant strain, serial dilution 238-0.46 μg/ml
Method: as §1

| SMILES | MIC, concentration at 50% inhibition of bacteria growth, E. faecalis 29212 [1] | MIC (Bacillus subtilis PY79) | MIC90 (Bacillus subtilis PY79) | MIC [2] | MIC90 [2] | MIC90 ([3]; strain not named in the sentence (Table 2: S. aureus 29213, B. subtilis PY79)) | MIC [4] | MIC [1] | MIC, concentration at 50% inhibition of bacteria growth, B. subtilis PY79 (Bacillus subtilis PY79) | MIC, concentration at 50% inhibition of bacteria growth, S. aureus 29213 [2] | MIC, concentration at 50% inhibition of bacteria growth, S. aureus 43300 [4] | antibacterial activity in words ([1]; E. faecalis 29212) | antibacterial activity in words (Bacillus subtilis PY79; B. subtilis PY79) | antibacterial activity in words ([2]; S. aureus 29213) | antibacterial activity in words [3] | antibacterial activity in words ([4]; S. aureus 43300) | concentration inhibiting over 90% growth ([1]; E. faecalis 29212) | concentration of complete (greater than 90%) inhibition ([2]; S. aureus 29213) | concentration of complete (greater than 90%) inhibition ([4]; S. aureus 43300, methicillin resistant) |
| --- | --- | --- | --- | --- | --- | --- | --- | --- | --- | --- | --- | --- | --- | --- | --- | --- | --- | --- | --- |
| CCN1CC[C@@H](CN(Cc2ccccc2)Cc2cccc3ccccc23)OC1=O [Compound A13] | – | 7.6 µg/mL (≈ 19.6 µM) | 30 µg/mL (≈ 77.2 µM) | 10 µg/mL (≈ 25.7 µM) | 14.9 µg/mL (≈ 38.4 µM) | – | 35 µg/mL (≈ 90.1 µM) | 7.4 µg/mL (≈ 19 µM) | – | – | – | – | – | – | most potent | – | – | – | – |
| CCN1CC[C@@H](CN(Cc2ccccc2)Cc2cccnc2)OC1=O [Compound A14] | 238 µg/mL | – | – | – | – | – | – | – | N | N | N | – | – | – | decreased or nullified | – | – | – | – |
| CN1CC[C@@H](CN(Cc2ccccc2)Cc2ccc3ccccc3c2)OC1=O [Compound B9] | – | 12 µg/mL (≈ 32 µM) | 30 µg/mL (≈ 80.1 µM) | 11.5 µg/mL (≈ 30.7 µM) | 14.9 µg/mL (≈ 39.8 µM) | – | 13 µg/mL (≈ 34.7 µM) | 14.9 µg/mL (≈ 39.8 µM) | – | – | – | – | – | – | most potent | – | – | – | – |

Further lines, with some results ahead:

| MIC, concentration at 50% inhibition of bacteria growth, E. faecalis 29212 [1] | MIC (Bacillus subtilis PY79) | MIC90 (Bacillus subtilis PY79) | MIC [2] | MIC90 [2] | MIC90 ([3]; strain not named in the sentence (Table 2: S. aureus 29213, B. subtilis PY79)) | MIC [4] | MIC [1] | MIC, concentration at 50% inhibition of bacteria growth, B. subtilis PY79 (Bacillus subtilis PY79) | MIC, concentration at 50% inhibition of bacteria growth, S. aureus 29213 [2] | MIC, concentration at 50% inhibition of bacteria growth, S. aureus 43300 [4] | SMILES | antibacterial activity in words ([1]; E. faecalis 29212) | antibacterial activity in words (Bacillus subtilis PY79; B. subtilis PY79) | antibacterial activity in words ([2]; S. aureus 29213) | antibacterial activity in words [3] | antibacterial activity in words ([4]; S. aureus 43300) | concentration inhibiting over 90% growth ([1]; E. faecalis 29212) | concentration of complete (greater than 90%) inhibition ([2]; S. aureus 29213) | concentration of complete (greater than 90%) inhibition ([4]; S. aureus 43300, methicillin resistant) |
| --- | --- | --- | --- | --- | --- | --- | --- | --- | --- | --- | --- | --- | --- | --- | --- | --- | --- | --- | --- |
| N | 5 µg/mL (≈ 12.3 µM) | 7.44 µg/mL (≈ 18.3 µM) | 5.6 µg/mL (≈ 13.7 µM) | 9.85 µg/mL (≈ 24.2 µM) | < 10 µg/mL | 6.56 µg/mL (≈ 16.1 µM) | – | – | – | – | CCN1CC[C@@H](CN(Cc2ccccc2)Cc2ccc(Cl)c(Cl)c2)OC1=O [Compound A11, 6-{[benzyl-(3,4-dichloro-benzyl)-amino]-methyl}-3-ethyl-[1,3]oxazinan-2-one] | no activity | excellent activity | excellent activity | most potent | excellent activity | – | – | – |
| N | – | – | – | – | – | – | – | N | N | N | CCN1CC[C@@H](CN(Cc2ccccc2)Cc2ccccn2)OC1=O [Compound A15] | – | – | – | decreased or nullified | – | – | – | – |
| – | 26 µg/mL (≈ 73.8 µM) | 59.5 µg/mL (≈ 169 µM) | 22 µg/mL (≈ 62.4 µM) | 29.8 µg/mL (≈ 84.5 µM) | – | 22.5 µg/mL (≈ 63.8 µM) | 8.1 µg/mL (≈ 23 µM) | – | – | – | CCN1CC[C@@H](CN(Cc2ccccc2)Cc2ccccc2C)OC1=O [Compound A17] | – | – | – | most potent | – | 14.9 µg/mL | 30 µg/mL | 30 µg/mL |
